Columns and labels:
[1] = Dahl salt-sensitive rat model; type: in vivo; details: male, Dahl salt-sensitive (DSS), rat, plasma, oral; DSS rats, 10 mg/kg/day in chow, week 6, n=6; read-out: average total plasma concentration of olinciguat
Method: (§1) The Dataquest A.R.T.™ acquisition and analysis system (Data Sciences International [DSI], St. Paul, MN) was employed to monitor and analyze hemodynamic data from conscious, freely moving rats surgically implanted with a telemetry pressure transmitter (PA-C40). Telemetry transmitter implantation was performed on rats under sterile conditions. Rats were anesthetized with isoflurane and body temperature was maintained with a heating pad during surgery. A laparotomy was performed to expose the abdominal aorta. The catheter tip of the telemetry transmitter was inserted into the abdominal aorta and secured with a 5-0 silk suture (Ethicon, Inc., Somerville, NJ). The abdominal incision was closed with uninterrupted suture (4-0 silk, Ethicon, Inc., Somerville, NJ) and the telemetry transmitter was placed in the abdominal cavity and secured to the abdominal wall. Approximately 100 µl of 0.25% marcaine was applied directly to the closed abdominal wall, and the skin was then closed with suture (4-0 Vicryl® absorbable, Ethicon, Inc., Somerville, NJ). Buprenorphine (0.05 mg/kg/day, subcutaneous [s.c.]) was administered immediately after the surgery for postoperative pain relief. After recovery from anesthesia, rats were returned to their home cages, placed on DSI receivers, and allowed a 5- to 14-day recovery period. Arterial hemodynamics were measured continuously and recorded throughout the study. For acute studies, analysis was based on hourly averages, for chronic studies, analysis was based on daily or weekly averages.
(§2) Male DSS rats (n = 48, 230–300 g) were implanted with telemetry transmitters as described above. During the 2-week pretreatment period and the 6-week treatment period, rats were either fed a NS diet (0.3% NaCl, n=8) or a HS diet (8% NaCl). During the treatment period, one group of HS rats was continued on HS diet (HS, n=8) and a second group of HS rats was switched to a HS diet containing olinciguat targeting the dose equivalent of 10 mg/kg/day (OLI10, n=8). At the end of the 6-week treatment period, body weight was measured, urine was collected over a 24-h period using a metabolic cage for urinalysis, and blood samples were collected for plasma biomarker analyses. At the end of the study, rats were anesthetized, and whole bodies were perfused via the left ventricle with heparinized PBS (1 U/ml heparin) containing IBMX (1mM). Organs were collected and weighed. All organ weights were normalized to body weight. After weighing the heart, the right ventricular free wall was removed, and the left ventricular free wall plus left ventricular septum (LV+S) were weighed.
(§3) In the DSS model, daily MAP (24-h average) data were analyzed using two-way ANOVA, with time and treatment group as independent variables. For each day, groups were compared to the HS group with a Dunnett's post-hoc test. Body weight, LV+S, cardiac weight, lung weight, kidney weight, plasma NT-proBNP, and 24-h urine protein excretion (UPE) data were analyzed by one-way ANOVA, followed by Dunnett's multiple comparison to the HS group.

[2] = tested on: Dahl salt-sensitive (DSS) rats on high salt diet; test: Dahl salt-sensitive rat model; type: in vivo; details: for MAP at the end of the treatment period: 6 weeks; for LV+S weight normalized to body weight: end of 6-week treatment
Method: as §1, §2, §3

[3] = Rat post-myocardial infarction model; type: in vivo; details: male, Sprague-Dawley, rat, plasma, oral; MI rats, 30 mg/kg/day in chow; read-out: olinciguat plasma concentration at week 8
Method: (§4) Male Sprague-Dawley rats (n = 24, 270–330 g) were studied. MI was induced by permanent ligation of the left anterior descending (LAD) coronary artery. Briefly, after anesthesia with 5% isoflurane, rats were intubated and ventilated using a small animal ventilator (Model 683, Harvard Apparatus). Surgery was performed under sterile conditions. Briefly, the heart was exposed through left thoracotomy, the pericardium was incised, and the LAD coronary artery was ligated with 4-0 silk suture (Ethicon, Inc.). The lungs were inflated, and the chest wall was closed in three layers. Approximately 100 µl of 0.25% marcaine was applied directly to the edge of the skin incision. Long-acting buprenorphine (1 mg/kg/day, s.c.) was administered after the surgery for postoperative pain relief. Sham-operated rats underwent the same procedure without ligation of the LAD.
(§5) Treatment was initiated within 24 h following surgery. The Sham and MI control groups were maintained on chow for the entire 8-week treatment period. Rats in the MI + olinciguat group received olinciguat in chow at the targeted dose of 30 mg/kg/day for the entire 8-week treatment period. Ejection fraction (EF) was measured at week 8 by echocardiography using the long axis view of the left ventricle in B-mode.
(§6) In the post-MI study, data were analyzed by one-way ANOVA, followed by Dunnett's multiple comparison to the MI group.

[4] = tested on: Sprague-Dawley rats with LAD ligation (post-MI); test: Rat post-myocardial infarction model; type: in vivo; details: 30 mg/kg/day, total plasma concentration x 1.0% free
Method: as §4, §5, §6

[5] = Plasma protein binding (equilibrium dialysis), rat; type: in vitro ADME; details: both sexes, Sprague Dawley, 1 and 10 μM, equilibrium dialysis 18 h, no gender difference, read-out: bound to plasma proteins
Method: Concentrated (10 mM) DMSO stock solutions of olinciguat were diluted to 1 and 10 μM in 2.5 ml of rat (male and female Sprague Dawley) and human plasma. Concentrated [^14C]-labeled olinciguat (1 μl,1 mCi/ml stock concentration) was spiked into each sample and mixed by vortexing. Triplicate 500 μl aliquots of plasma containing [^14C]-labeled olinciguat were transferred to a Rapid Equilibrium Dialysis system and dialyzed (molecular weight cut-off ~8000 Da) against 500 μl of phosphate-buffered saline (PBS) at room temperature for 18 h. Radioactivity of [^14C]-labeled olinciguat in PBS and plasma samples was measured using liquid scintillation counting.

concentration at 6 weeks [1]: 25.4 ± 3.8 nM
Olinciguat concentration (free) ([2]; 10 mg/kg/day, total plasma concentration x 1.0% free): 0.22–0.29 nM^e
concentration at 8 weeks [3]: 167 ± 11 nM
Olinciguat concentration (free) [4]: 1.6–1.8 nM^e
fraction unbound at 18 h [5]: 0.01
SMILES: NC(=O)[C@](O)(CNc1nc(-c2cc(-c3ccon3)n(Cc3ccccc3F)n2)ncc1F)C(F)(F)F [olinciguat, (R)-3,3,3-trifluoro-2-(((5-fluoro-2-(1-(2-fluorobenzyl)-5-(isoxazol-3-yl)-1H-pyrazol-3-yl)pyrimidin-4-yl)amino)methyl)-2-hydroxypropanamide]
MAP at the end of the treatment period ([2]; HS diet, olinciguat 10 mg/kg/day in chow): 192 mmHg
MAP at the end of the treatment period ([2]; HS diet, olinciguat 10 mg/kg/day in chow, listed as OLI10): 192 ± 7 mmHg
MAP on day 16 (after treatment initiation) ([2]; HS diet, olinciguat 10 mg/kg/day in chow, 161 ± 7 mmHg on day 14 before treatment): 146 ± 7 mmHg
lung weight, fold higher than in NS ([2]; HS diet, olinciguat 10 mg/kg/day vs NS control): 1.2 fold
lung weight normalized to body weight ([2]; HS diet, olinciguat 10 mg/kg/day, HS 8.9 ± 1.7): ↓ lung weight
lung weight normalized to body weight ([2]; HS diet, olinciguat 10 mg/kg/day, HS 8.9 ± 1.7, listed as OLI10): 4.0 ± 0.1 g/kg BW
normalized kidney weight ([2]; HS diet, olinciguat 10 mg/kg/day, HS 10.9 ± 0.5, not significantly different): 10.2 ± 0.23 g/kg BW
24-h urine protein excretion (UPE) ([2]; HS diet, olinciguat 10 mg/kg/day, HS 643 ± 60, not statistically significant): 599 ± 70 mg
average body weight at the end of the treatment period ([2]; HS diet, olinciguat 10 mg/kg/day, HS control 364 ± 19): 412 ± 11 g
cardiac weight vs HS ([2]; HS diet, olinciguat 10 mg/kg/day, data not shown): lower in OLI10 than HS
LV+S weight normalized to body weight ([2]; HS diet, olinciguat 10 mg/kg/day, HS 4.1 ± 0.2): ↓ cardiac hypertrophy
LV+S weight normalized to body weight ([2]; HS diet, olinciguat 10 mg/kg/day, HS 4.1 ± 0.2, listed as OLI10): 3.3 ± 0.1 g/kg BW
difference in MAP between olinciguat-treated and HS disease control at end of treatment period ([2]; HS diet, olinciguat 10 mg/kg/day, lower than HS, listed as OLI10): 15 mmHg
plasma NT-proBNP ([2]; HS diet, olinciguat 10 mg/kg/day, n=6, HS 2,833 ± 416): ↓ NT-proBNP
plasma NT-proBNP ([2]; HS diet, olinciguat 10 mg/kg/day, n=6, HS 2,833 ± 416, listed as OLI10): 1,235 ± 301 pg/ml
NT-proBNP, percent lower than untreated controls ([2]; olinciguat 10 mg/kg/day): 56%

Source: publication PMC7156612, “Olinciguat, an Oral sGC Stimulator, Exhibits Diverse Pharmacology Across Preclinical Models of Cardiovascular, Metabolic, Renal, and Inflammatory Disease” (Frontiers in Pharmacology, 2020)
